According to patent US12384751B2, “Allosteric activators of the ALPHA1A-adrenergic receptor” (The Cleveland Clinic Foundation, priority 2019, dated 2025):
Entries after “also recorded” stand apart in the source; their conditions may differ. Where two headings read alike, the source gives them in different places.

How the values were obtained:
α1A-AR [1] = target: T1, α1A-AR (Homo sapiens, UniProt P35348); assay: Rapid cAMP screening assay for PAM effects (norepinephrine constant at Emax); assay type: cell-based, human and mouse; details: norepinephrine constant at 10^−4M; range over cell lines (fibroblasts, neuroblastoma, cardiomyocytes)
T1 sequence (P35348 1-466): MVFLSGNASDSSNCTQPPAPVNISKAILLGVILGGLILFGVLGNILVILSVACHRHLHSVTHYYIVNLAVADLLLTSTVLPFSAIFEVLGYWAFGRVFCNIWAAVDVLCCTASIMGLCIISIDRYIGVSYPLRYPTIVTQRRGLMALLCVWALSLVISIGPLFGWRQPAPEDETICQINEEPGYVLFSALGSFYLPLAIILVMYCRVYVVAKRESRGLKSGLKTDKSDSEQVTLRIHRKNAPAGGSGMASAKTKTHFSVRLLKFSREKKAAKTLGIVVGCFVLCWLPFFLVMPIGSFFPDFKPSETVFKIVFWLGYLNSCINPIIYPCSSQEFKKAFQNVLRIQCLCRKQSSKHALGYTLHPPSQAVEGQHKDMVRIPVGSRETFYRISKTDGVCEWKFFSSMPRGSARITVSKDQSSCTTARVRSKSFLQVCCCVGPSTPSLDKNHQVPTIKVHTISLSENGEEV
Procedure: cAMP assay: Cells expressing a single α1-adrenergic receptor subtype are washed and re-plated into 24-well plates in DMEM media without serum at approximately 2.4×10^4 cells/well. Cells are allowed to rest till the next day in a CO2 incubator at 37° C. The cells are washed twice with DMEM (no serum), then 1 ml of DMEM is added to each well. Cells are pre-incubated for 45 mins-1 hour at 37° C. in a CO2 incubator with 10 uM propranolol, followed by 100 uM IBMX for 30 minutes. Final DMSO concentration is at 0.05%. Norepinephrine or epinephrine is added in a dose response (1 dose per well) in addition to one of the Compounds 1-10 at one concentration (i.e. 10^−5M). Cells are incubated for another 30 mins at 37° C. in a CO2 incubator. The reaction is concluded by aspirating the media and adding 0.1M HCL. The mixture is incubated for 20 mins at room temperature. The cells are scraped and suspended until homogenous. The mixture is centrifuged at 1000 g for 10 mins and the supernatant assayed the same day according to a manufacturer's cAMP kit (Cayman Select Cyclic AMP EIA kit #501040).
In this assay, the concentration of norepinephrine is held constant at its Emax (10^−4M) (FIG. 10, red line). Compound 3 is then added in a dose-response (FIG. 10, blue line). Any signal above the red line is potentiation. […]

α1A-AR [2] = target: T1, α1A-AR; assay: Competition binding with [125I]HEAT at α1A-AR (Rat-1 fibroblast membranes); parameters: expressed in transfected cells; host or cells: Rat-1 fibroblast cells
Procedure: Competition binding assays: […] Assays were performed in duplicate in HEM buffer, in a total assay volume of 1000 μl. […] The above conditions will convert all the conformations of the receptor into a single low affinity site. To show both high and low affinity sites of the receptor (typically seen with GPCR agonists), the GTP is removed from the binding buffer. Nonspecific binding was determined experimentally in the presence of 10^−4 M phentolamine. Unbound radioactivity was separated from membrane-bound radioactivity by filtration through Whatman GF/C filter paper. Filters are washed five times with 5 ml of cold HEM buffer containing 0.5 mMGTP (if added to the binding buffer but not if it was not added to the binding buffer). Bound radioactivity remaining on the filters was counted on an ICN gamma counter operating at 79.8% efficiency. Data are analyzed using Graphpad Prism.

[3] = Body weight of 3×TG AD mice; assay type: in vivo, mouse; details: female 3×TG mice
Procedure: AD mice were first randomized and sorted into control or treatment groups. […] 14 AD mice from each treatment group received Compound 3 in the drinking water (2.611 mg/kg/bw) to deliver a daily dose near the peak potentiation of the cAMP response in the brain at 10^−8M based upon the PAM assay and pharmacokinetics. This was achieved by adding Compound 3 to the drinking water at 32 uM, assuming the mice drink 6 ml/day, with only 10% of bioavailable drug reaching the brain. The drug was administered in the drinking water for 10 months, starting at age 2 months, then subjected to either different cognitive behavioral tests or electrophysiology at age 12 months to maximize the manifestations of AD symptoms in these mice. Mice are maintained on the drug for the duration of the studies and blinded to the operator.
At 12 months of age mice were subjected to long term potentiation (LTP) (FIG. 25).
It is known that females in the 3×TG AD mouse model have higher penetrance for the disease than males so an increase in body weight may be a general sign of better health. Weight loss and muscle loss are well-known symptoms associated with AD (91-93).

## CC(C)Cc1c(OCC2=NCCN2)cccc1N(C)S(C)(=O)=O [Compound 3, N-[3-(4,5-Dihydro-1H-imidazol-2-ylmethoxy)-2-isobutyl-phenyl]-N-methyl-methanesulfonamide]
α1A-AR [1]
  Emax of PAM potentiation: 35-60 % of the norepinephrine's maximum response
α1A-AR [2]
  binding behaviour against radiolabeled antagonist 125I-HEAT (full inhibition; competitive or allosteric): cannot fully inhibit
α1A-AR [2]; 0.5 mM GTP in binding buffer, competition with 125I-HEAT, read-out: affinity for the α1A-AR
  Ki: ~100 nM
α1A-AR [2]; GTP removed from binding buffer, read-out: high affinity site
  Ki: 0.001 nM
[3]
  body weight vs untreated: increased body weight; also recorded: retained or gained body weight
